Values quoted from earlier work, collected in patent publication US7414057B2, “Piperazine urea derivatives as melanocortin-4 receptor agonists” (Merck & Co., Inc., priority 2002, dated 2008).

Conditions: injected intramuscularly or subcutaneously to males with psychogenic erectile dysfunction

For “Ac-Nle-c[Asp-His-DPhe-Arg-Trp-Lys]-NH2 [melanotan-II]”, the response rate is given as 75%.
